Where two headings read alike, the source gives them in different places.
How the values were obtained:
[1] = biological target: T1, Recombinant STAT3 protein (STAT3 (G127-I722)) (Homo sapiens, UniProt P40763); experiment: STAT3 Fluorescence Polarization (FP) Assay; assay type: binding; settings: probe 5-FAM-GpYLPQTV-NH2 2 nM, 45-minute incubation
T1 construct: Recombinant STAT3 protein (STAT3 (G127-I722))
Summary of the method: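 Displacement of a 2 nM 5-FAM-labelled pY peptide (GpYLPQTV) from 25 nM recombinant STAT3 (G127-I722) was monitored by fluorescence polarization. Incubation lasted 45 min at room temperature in pH 7.4 HEPES buffer containing 1% DMSO.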

[2] = biological target: T2, Recombinant STAT6 protein (STAT6 (W123-T658)) (Homo sapiens, UniProt P42226); experiment: STAT6 Fluorescence Polarization (FP) Assay; assay type: binding; settings: probe 5-FAM-Ap[…]-NH2 2 nM, 45-minute incubation
T2 construct: Recombinant STAT6 protein (STAT6 (W123-T658))
T2 sequence (P42226 123-658): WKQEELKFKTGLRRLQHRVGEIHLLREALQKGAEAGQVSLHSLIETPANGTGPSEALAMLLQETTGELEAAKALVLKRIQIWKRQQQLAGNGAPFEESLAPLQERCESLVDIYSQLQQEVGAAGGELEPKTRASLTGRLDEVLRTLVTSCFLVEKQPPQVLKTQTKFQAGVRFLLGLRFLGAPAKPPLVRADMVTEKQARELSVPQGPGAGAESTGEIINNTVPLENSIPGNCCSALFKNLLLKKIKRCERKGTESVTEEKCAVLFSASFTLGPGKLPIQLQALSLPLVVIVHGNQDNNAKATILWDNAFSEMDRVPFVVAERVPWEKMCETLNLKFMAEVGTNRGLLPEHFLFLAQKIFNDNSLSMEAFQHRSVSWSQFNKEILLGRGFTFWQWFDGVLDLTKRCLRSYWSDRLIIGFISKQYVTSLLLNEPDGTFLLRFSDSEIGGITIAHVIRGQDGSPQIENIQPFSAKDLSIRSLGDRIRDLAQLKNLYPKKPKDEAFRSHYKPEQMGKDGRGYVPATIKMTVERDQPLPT
Summary of the method: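 Recombinant STAT6 (W123-T658) at 250 nM mixed with 2 nM 5-FAM phosphotyrosine peptide probe in HEPES pH 7.4 buffer with DTT, 1% DMSO final, added to serially diluted compounds. FP (mP) read after 45 min at room temperature; IC50 by nonlinear regression vs log concentration.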

[3] = STAT3 (G127-I722) 25 nM, read-out: STAT3 (FP assay IC50 class)
[4] = STAT6 (W123-T658) 250 nM, read-out: STAT6 (FP assay IC50 class)
[5] = STAT3 25 nM, read-out: STAT3 (FP assay IC50)
[6] = STAT6 250 nM, read-out: STAT6 (FP assay IC50)

T1 sequence (P40763 127-722): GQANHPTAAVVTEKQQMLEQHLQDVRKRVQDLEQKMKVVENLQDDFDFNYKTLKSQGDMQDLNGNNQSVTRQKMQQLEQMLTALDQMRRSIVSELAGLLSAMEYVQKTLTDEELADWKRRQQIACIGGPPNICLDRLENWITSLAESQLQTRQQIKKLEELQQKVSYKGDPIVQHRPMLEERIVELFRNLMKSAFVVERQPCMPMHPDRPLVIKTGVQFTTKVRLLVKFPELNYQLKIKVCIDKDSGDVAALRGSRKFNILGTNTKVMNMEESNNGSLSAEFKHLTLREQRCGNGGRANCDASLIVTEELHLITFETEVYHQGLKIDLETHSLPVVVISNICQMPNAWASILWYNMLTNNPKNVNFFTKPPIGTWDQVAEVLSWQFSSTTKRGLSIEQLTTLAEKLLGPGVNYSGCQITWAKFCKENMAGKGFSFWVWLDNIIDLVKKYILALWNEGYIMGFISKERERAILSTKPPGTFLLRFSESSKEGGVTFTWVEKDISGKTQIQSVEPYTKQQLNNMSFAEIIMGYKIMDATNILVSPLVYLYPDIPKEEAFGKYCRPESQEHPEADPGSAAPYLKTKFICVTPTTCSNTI

| Compound | IC50 [1, 3] [nM] | IC50 [2, 4] [µM] | IC50 [1, 5] [nM] | IC50 [2, 6] [µM] |
| --- | --- | --- | --- | --- |
| O=C(N[C@H]1CCCC[C@H]2CC[C@@H](C(=O)NCc3cnc4[nH]cnc4c3)N2C1=O)c1cc2cc(CP(=O)(O)O)ccc2s1 [Compound 640, ((2-(((3S,6S,10aS)-3-(((3H-imidazo[4,5-b]pyridin-6-yl)methyl)carbamoyl)-5-oxodecahydropyrrolo [1,2-a]azocin-6-yl)carbamoyl)benzo [b]thiophen-5-yl)methyl) phosphonic acid] | 100 to 1000 | 3 to 30 | – | – |
| CN(C)c1ccncc1C1CN(C(=O)[C@@H]2CC[C@@H]3CCC[C@H](NC(=O)c4cc5cc(CP(=O)(O)O)ccc5s4)C(=O)N32)C1 [Compound 512, ((2-(((3S,6S,9aS)-3-(3-(4-(dimethylamino)pyridin-3-yl)azetidine-1-carbonyl)-5-oxooctahydro-1H-pyrrolo[1,2-a]azepin-6-yl)carbamoyl)benzo[b]thiophen-5-yl)methyl)phosphonic acid] | < 100 | 3 to 30 | – | – |
| N=S1(=O)CCC(C2CN(C(=O)[C@@H]3CC[C@@H]4CCCC[C@H](NC(=O)c5cc6cc(C(F)(F)P(=O)(O)O)ccc6s5)C(=O)N43)C2)CC1 (stereo partly drawn) [Compound 61, (difluoro(2-(((3S,6S,10aS)-3-(3-(1-imino-1-oxidohexahydro-1l6-thiopyran-4-yl)azetidine-1-carbonyl)-5-oxodecahydropyrrolo [1,2-a]azocin-6-yl)carbamoyl)benzo[b]thiophen-5-yl)methyl) phosphonic acid] | – | – | 100 to 1000 | 0.3 to 3 |
| NC(=O)N1C[C@H](NC(=O)[C@@H]2CC[C@@H]3CCCC[C@H](NC(=O)c4cc5cc(C(F)P(=O)(O)O)ccc5s4)C(=O)N32)[C@@H](F)C1 (stereo partly drawn) [Compound 558, ((2-(((3S,6S,10aS)-3-(((3S,4S)-1-carbamoyl-4-fluoropyrrolidin-3-yl)carbamoyl)-5-oxodecahydropyrrolo[1,2-a]azocin-6-yl)carbamoyl)benzo[b]thiophen-5-yl)fluoromethyl)phosphonic acid] | < 100 | 0.3 to 3 | – | – |
| CCC[C@@H]1CC[C@H](NC(=O)c2cc3cc(C(F)P(=O)(O)O)ccc3s2)C(=O)N2[C@H](CC[C@H]2C(=O)N2CC(c3cnccc3OC)C2)C1 (stereo partly drawn) [Compound 241, (fluoro(2-(((3S,6S,9R,10aR)-3-(3-(4-methoxypyridin-3-yl)azetidine-1-carbonyl)-5-oxo-9-propyldecahydropyrrolo[1,2-a]azocin-6-yl)carbamoyl)benzo[b]thiophen-5-yl)methyl)phosphonic acid] | < 100 | 3 to 30 | – | – |
| COc1cc(CCN(C)C(=O)[C@@H]2CC[C@@H]3CCCC[C@H](NC(=O)c4cc5cc(C(F)(F)P(=O)(O)O)ccc5s4)C(=O)N32)ccn1 [Compound 47, (difluoro(2-(((3S,6S,10aS)-3-((2-(2-methoxypyridin-4-yl)ethyl)(methyl)carbamoyl)-5-oxodecahydropyrrolo [1,2-a]azocin-6-yl)carbamoyl)benzo[b]thiophen-5-yl)methyl) phosphonic acid] | – | – | 1000 to 10000 | 0.3 to 3 |
| O=C(N[C@H]1CCCC[C@H]2CC[C@@H](C(=O)N3CC(N4CCOCC4)C3)N2C1=O)c1cc2cc(C(F)(F)P(=O)(O)O)ccc2s1 [Compound 113, (difluoro(2-(((3S,6S, 10aS)-3-(3-morpho-linoazetidine-1-carbonyl)-5-oxodecahydropyrrolo[1,2-a]azocin-6-yl)carbamoyl)benzo[b]thiophen-5-yl)methyl)ph osphonic acid] | – | – | 100 to 1000 | 3 to 30 |
| O=C(N[C@H]1CCCC[C@H]2CC[C@@H](C(=O)N3CC(OCC(F)F)(c4ccccn4)C3)N2C1=O)c1cc2cc(C(F)P(=O)(O)O)ccc2s1 (stereo partly drawn) [Compound 621, ((2-(((3S,6S,10aS)-3-(3-(2,2-difluoroethoxy)-3-(pyridin-2-yl)azetidine-1-carbonyl)-5-oxodecahydropyrrolo [1,2-a]azocin-6-yl)carbamoyl)benzo [b]thiophen-5-yl)fluoromethyl) phosphonic acid] | < 100 | 3 to 30 | – | – |
| O=C(N[C@H]1CCC[C@H]2CC[C@@H](C(=O)N3CC(c4n[nH]cc4F)C3)N2C1=O)c1cc2cc(C(F)P(=O)(O)O)ccc2s1 (stereo partly drawn) [Compound 595, (fluoro(2-(((3S,6S,9aS)-3-(3-(4-fluoro-1H-pyrazol-3-yl)azetidine-1-carbonyl)-5-oxooctahydro-1H-pyrrolo[1,2-a]azepin-6-yl)carbamoyl)benzo [b]thiophen-5-yl)methyl) phosphonic acid] | 100 to 1000 | 3 to 30 | – | – |
| O=C(N[C@H]1CCC[C@H]2CC[C@@H](C(=O)Nc3ccc(-c4ccccc4)cc3)N2C1=O)c1cc2cc(C(F)(F)P(=O)(O)O)ccc2s1 [Compound 121, ((2-(((3S,6S,9aS)-3-([1,1′-biphenyl]-4-ylcarbamoyl)-5-oxooctahydro-1H-pyrrolo[1,2-a]azepin-6-yl)carbamoyl)benzo[b]thiophen-5-yl)difluoromethyl) phosphonic acid] | – | – | 100 to 1000 | 0.3 to 3 |

Other lines, results leading:

| IC50 [1, 3] [nM] | IC50 [2, 4] [µM] | IC50 [1, 5] [nM] | IC50 [2, 6] [µM] | Compound |
| --- | --- | --- | --- | --- |
| < 100 | 0.3 to 3 | – | – | O=C(N[C@H]1CCCC[C@H]2CC[C@@H](C(=O)NCc3cnc4[nH]cnc4c3)N2C1=O)c1cc2cc(C(F)(F)P(=O)(O)O)ccc2s1 [Compound 1112, ((2-(((3S,6S,10aS)-3-(((3H-imidazo[4,5-b]pyridin-6-yl)methyl)carbamoyl)-5-oxodecahydropyrrolo[1,2-a]azocin-6-yl)carbamoyl)benzo[b]thiophen-5-yl)difluoromethyl)phosphonic acid] |
| 1000 to 10000 | 0.3 to 3 | – | – | N#C[C@@H]1[C@@H](c2cncc(Cl)c2)CN(C(=O)[C@@H]2CC[C@@H]3CCCC[C@H](NC(=O)c4cc5cc(C(F)P(=O)(O)O)ccc5s4)C(=O)N32)C12CC2 (single isomer, unassigned) [Compound 846] |
| 1000 to 10000 | ≤ 0.3 | – | – | N#C[C@@H]1[C@@H](c2ccccc2)CN(C(=O)[C@@H]2CC[C@@H]3C[C@@H](N4CCC4)CC[C@H](NC(=O)c4cc5cc([C@@H](F)P(=O)(O)O)ccc5s4)C(=O)N32)C12CC2 (single isomer, unassigned) [Compound 935] |
| 1000 to 10000 | ≤ 0.3 | – | – | Cn1ccc(C2CN(C(=O)[C@@H]3CC[C@@H]4CCCC[C@H](NC(=O)c5cc6cc(C(F)P(=O)(O)O)ccc6s5)C(=O)N43)C3(CC3)C2)cc1=O (stereo partly drawn) [Compound 898, (fluoro(2-(((3S,6S,10aS)-3-(6-(1-methyl-2-oxo-1,2-dihydropyridin-4-yl)-4-azaspiro[2.4]heptane-4-carbonyl)-5-oxodecahydropyrrolo [1,2-a]azocin-6-yl)carbamoyl)benzo [b]thiophen-5-yl)methyl) phosphonic acid] |
| 100 to 1000 | 3 to 30 | – | – | COC1(c2nncn2C)CN(C(=O)[C@@H]2CC[C@@H]3CCC[C@H](NC(=O)c4cc5cc(C(F)(F)P(=O)(O)O)ccc5s4)C(=O)N32)C1 [Compound 796, (difluoro(2-(((3S,6S,9aS)-3-(3-methoxy-3-(4-methyl-4H-1,2,4-triazol-3-yl)azetidine-1-carbonyl)-5-oxooctahydro-1H-pyrrolo[1,2-a]azepin-6-yl)carbamoyl)benzo [b]thiophen-5-yl)methyl) phosphonic acid] |
| 1000 to 10000 | 0.3 to 3 | – | – | O=C(N[C@H]1CCCC[C@H]2CC[C@@H](C(=O)N3CCC(c4cccnc4)C3)N2C1=O)c1ccc2ccc(C(F)P(=O)(O)O)cc2c1 (stereo partly drawn) [Compound 892, (fluoro(7-(((3S,6S,10aS)-5-oxo-3-(3-(pyridin-3-yl)pyrrolidine-1-carbonyl)decahydropyrrolo[1,2-a]azocin-6-yl)carbamoyl)naphthalen-2-yl)methyl) phosphonic acid] |
